Experimental data: US9937235B2, “Lipidated peptides as anti-obesity agents” (USTAV ORGANICKE CHEMIE A BIOCHEMIE AKADEMIE VED CR, V.V.I, priority 2012, dated 2018)
Where a SMILES comes first, the peptide text is derived from it. [ ]: non-standard residue; d: D form. The star is where a group is joined. 1Nal = N[C@@H](Cc1cccc2ccccc12)C(=O)O; Tridecanoyl = CCCCCCCCCCCCC(=O)*; Myristoyl = CCCCCCCCCCCCCC(=O)*; Nle = CCCC[C@H](N)C(=O)O; Octanoyl = CCCCCCCC(=O)*; Dap = NC[C@H](N)C(=O)O

What was measured:
[1] = system: fasted C57BL/6 mice; assay: Food intake in fasted mice after SC administration; format: in vivo, mouse; conditions: for food intake / % control: SC administration; for % control: food intake vs saline
Procedure, shortened: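 Male C57BL/6 mice, food-deprived 17 h, received saline, PrRP or lipidated analogs either SC at 1-10 mg/kg or ICV into the third ventricle at 4 nmol/mouse.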

[2] = system: MAPK/ERK1/2 signaling pathway in RC-4B/C cells; assay: MAPK/ERK1/2 signaling in RC-4B/C cells (Western blot); format: cell-based, rat; conditions: 10^−6 mol·l^−1, 5 minute incubation
Method: RC-4B/C cells, which were used to determine if lipidated PrRP20 analogs are able to initiate the MAPK/ERK1/2 signaling pathway, were grown in 6-well plates up to the optimal density of […]. Seventeen hours before sample harvest, the growth medium was replaced by a serum-free medium lacking epidermal growth factor (EGF). The respective lipidated PrRP analog was added to each well in the final concentration of 10^−6 mol·l^−1. After a 5 minute incubation at 37° C., the plate was placed on ice and each well was rinsed three times with PBS pH 7.4 (137 mmol·l^−1 NaCl, 2.7 mmol·l^−1 KCl, 8 mmol·l^−1 Na2HPO4.2H2O a 1.76 mmol·l^−1 KH2PO4) and cooled to 4° C. […] Samples were collected in at least three independent experiments.
To determine if the lipidated PrRP20 analogs initiated the MAPK/ERK1/2 signaling pathway, Western blot analysis was used. Electrophoresis was performed on 5%/12% polyacrylamide gel in the presence of SDS (SDS-PAGE) on the instrument MiniProtean 3 (BioRad, Herkules, Calif., USA). Samples that were loaded on the gel were first disintegrated by ultrasound, then heated at 100° C. for 2 minutes, and centrifuged for 5 minutes at 500×g at room temperature. […] Electrophoresis was performed at a constant voltage of 100 V for 10 minutes, or for 60 minutes at 150 V.
To show the presence of phosphorylated proteins in the samples, the proteins from the SDS-PAGE gel were transferred to the Immobilon™-P PVDF (polyvinylidene difluoride) membrane (Sigma-Aldrich, USA). The transfer was performed in blotting buffer at pH 8.3 (25 mmol·l^−1 Tris, 192 mmol·l^−1 glycine and 20% methanol) for 20 hours at 4° C. at a constant voltage of 30 V.
After the protein transfer to the PVDF membrane, the membranes were washed for 5 minutes in TBS washing buffer (20 mmol·l^−1 Tris, 140 mmol·l^−1 NaCl and 0.1% Tween-20) and then incubated for 1 hour in blocking buffer (TBS with 5% non-fat milk powder and 5 mmol·l^−1 Na3VO4 and 50 mmol·l^−1 NaF) at room temperature. Further, the membranes were washed three times for 5 minutes using the TBS washing buffer. The membranes were then incubated with the primary antibody against phospho-p44/42 MAPK(Thr202/Tyr204) (Cell Signaling Technology, Beverly, USA) which was diluted in blocking buffer at 1:1000. After the next three washes with the TBS washing buffer for 5 minutes, the membranes were incubated for 1 hour with rabbit secondary antibody labeled with peroxidase (Sigma, St. Louis, USA) which was diluted in blocking buffer at 1:12,000.
The membranes were then washed three times in TBS washing buffer for 5 minutes and then the solution Femto (Pierce SuperSignal, Thermo Fisher Scientific, Rockford, Ill., USA) was applied. The induced chemiluminiscence was detected by a CCD camera (LAS 3000, Fuji Photo Film GmBH, Düsseldorf, Germany).
To assess the initiation of signaling pathways, a densitometric analysis using the program Quantity One (BioRad, Hercules, Calif., USA) was used. For statistical evaluation of the statistically significant response of the cellular signaling, one-way ANOVA with subsequent Dunnett post-hoc test was used. Data was statistically significant at P<0.05.

[3] = system: fasted C57BL/6 mice; assay: Food intake in fasted mice after ICV administration; format: in vivo; conditions: 4 nmol/mouse; for % control: food intake vs saline
Method: Male C57BL/6 mice (An Lab, Prague 4) were bred in the accredited animal facility in the Institute of Organic Chemistry and Biochemistry, Czech Academy of Sciences, Prague, at the Institute of Molecular Genetics, Prague 4, at the temperature of 22±2° C. with access to food and water ad libitum. The day/night cycle was 12/12 hours (light turned on at 6:00 am). Animals were treated according to the Animal Protection Act (Act No. 246/1992). The males were fed standard chow diet St-1 (Mlýn Kocanda, Praha, Czech Republic) which contained 66% saccharides, 25% proteins and 9% lipids with a caloric value of 3.4 kcal/g.
The food was withdrawn 17 hours prior to injection of lipidated peptide and free access to water was maintained. The administration of saline, PrRP or lipidated analogs was performed either by SC injection at doses of 1-10 mg/kg (volume 0.2 ml/mouse), or by ICV using infusion pump (cannulae were inserted into the third brain ventricle 4 days before the experiment following the procedure of Maixnerová et al. (Maixnerová et al., 2011)). The single dose of peptide was 4 nmol/mouse (5 μl/mouse).
Fifteen minutes after the lipidated peptide administration, the mice were given pre-weighed food. The food was then weighed every 30 minutes for 5-10 hours. The administration of every dose was performed at least twice and one group of mice consisted of at least 6 mice. The results were presented as % of food intake as compared with the control group injected with saline.
Statistical evaluation was performed using program Graph-Pad Prism Software (San Diego, Calif., USA), and the one-way ANOVA with a subsequent Dunnettovým post-hoc test. The difference in food intake between mice injected with saline and mice injected with the examined peptide were considered statistically significant at P<0.05.

[4] = target: T1, rat PrRP receptor (GPR10) in RC-4B/C cells (Rattus norvegicus, UniProt Q64121); assay: Competitive binding to rat pituitary RC-4B/C cells; conditions: ^125I-rat PrRP31, RC-4B/C cells
T1 construct: host or cells: RC-4B/C rat pituitary cell line
T1 sequence (Q64121 1-370): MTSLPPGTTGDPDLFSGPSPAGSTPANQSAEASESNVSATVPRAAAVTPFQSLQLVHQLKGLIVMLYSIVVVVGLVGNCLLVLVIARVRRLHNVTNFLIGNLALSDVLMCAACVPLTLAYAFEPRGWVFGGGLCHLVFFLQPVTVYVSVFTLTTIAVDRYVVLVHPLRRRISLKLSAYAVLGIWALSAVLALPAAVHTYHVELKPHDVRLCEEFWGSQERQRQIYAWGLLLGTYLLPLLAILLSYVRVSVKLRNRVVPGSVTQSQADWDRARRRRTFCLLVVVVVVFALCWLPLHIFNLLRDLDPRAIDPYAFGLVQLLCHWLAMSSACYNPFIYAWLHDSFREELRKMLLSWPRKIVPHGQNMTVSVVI

[5] = 45 minutes, dose not stated for these substances
[6] = 300 minutes, dose not stated for these substances

% of PrRP31 binding [4] | Compound | food intake ([1]; 45 minutes, 5 mg/kg) | % control ([1]; 45 minutes, 5 mg/kg) | food intake ([1]; 300 minutes, 5 mg/kg) | % control ([1]; 300 minutes, 5 mg/kg) | ERK signaling [2] | food intake ([3]; 45 minutes) | % control ([3]; 45 minutes) | food intake ([3]; 300 minutes) | % control ([3]; 300 minutes) | food intake [1, 5] | % control [1, 5] | food intake [1, 6] | % control [1, 6] | dose dependence of the lowering of food intake ([1]; SC administration, 1, 2, 5 and 10 mg/kg, FIG. 5 and 6) | food intake ([1]; 45 minutes, 10 mg/kg) | % control ([1]; 45 minutes, 10 mg/kg) | food intake ([1]; 300 minutes, 10 mg/kg) | % control ([1]; 300 minutes, 10 mg/kg)
967% | CCCCCCCCCCCCC(=O)NC[C@H](N)C(=O)N[C@@H](CCCNC(=N)N)C(=O)N[C@@H](C)C(=O)N[C@@H](Cc1c[nH]cn1)C(=O)N[C@@H](CCC(N)=O)C(=O)N[C@@H](Cc1c[nH]cn1)C(=O)N[C@@H](CO)C(=O)N[C@@H](CCCC)C(=O)N[C@@H](CCC(=O)O)C(=O)N[C@H](C(=O)N[C@@H](CCCNC(=N)N)C(=O)N[C@H](C(=O)N1CCC[C@H]1C(=O)N[C@@H](CC(=O)O)C(=O)N[C@H](C(=O)N[C@@H](CC(N)=O)C(=O)N1CCC[C@H]1C(=O)N[C@@H](C)C(=O)N[C@@H](Cc1c[nH]c2ccccc12)C(=O)N[C@@H](Cc1ccc(O)cc1)C(=O)N[C@H](C(=O)NCC(=O)N[C@@H](CCCNC(=N)N)C(=O)NCC(=O)N[C@H](C(=O)N[C@@H](CCCNC(=N)N)C(=O)N1CCC[C@H]1C(=O)N[C@H](C(=O)NCC(=O)N[C@@H](CCCNC(=N)N)C(=O)N[C@@H](Cc1ccccc1)C(N)=O)C(C)C)[C@@H](C)CC)[C@@H](C)O)[C@@H](C)CC)[C@@H](C)O)[C@@H](C)O [Analog 4] (H-[Dap](Tridecanoyl)RAHQHS[Nle]ETRTPDINPAWYTGRGIRPVGRF-NH2) | 0.07 g | 30% | 1.04 g | 101% | agonist | 0.38 g | 71% | 1.4 g | 105% |  |  |  |  |  |  |  |  | 
13% | CCCCCCCC(=O)NC[C@H](N)C(=O)N[C@@H](CCCNC(=N)N)C(=O)N[C@@H](C)C(=O)N[C@@H](Cc1c[nH]cn1)C(=O)N[C@@H](CCC(N)=O)C(=O)N[C@@H](Cc1c[nH]cn1)C(=O)N[C@@H](CO)C(=O)N[C@@H](CCCC)C(=O)N[C@@H](CCC(=O)O)C(=O)N[C@H](C(=O)N[C@@H](CCCNC(=N)N)C(=O)N[C@H](C(=O)N1CCC[C@H]1C(=O)N[C@@H](CC(=O)O)C(=O)N[C@H](C(=O)N[C@@H](CC(N)=O)C(=O)N1CCC[C@H]1C(=O)N[C@@H](C)C(=O)N[C@@H](Cc1c[nH]c2ccccc12)C(=O)N[C@@H](Cc1ccc(O)cc1)C(=O)N[C@H](C(=O)NCC(=O)N[C@@H](CCCNC(=N)N)C(=O)NCC(=O)N[C@H](C(=O)N[C@@H](CCCNC(=N)N)C(=O)N1CCC[C@H]1C(=O)N[C@H](C(=O)NCC(=O)N[C@@H](CCCNC(=N)N)C(=O)N[C@@H](Cc1cccc2ccccc12)C(N)=O)C(C)C)[C@@H](C)CC)[C@@H](C)O)[C@@H](C)CC)[C@@H](C)O)[C@@H](C)O [Analog 8] (H-[Dap](Octanoyl)RAHQHS[Nle]ETRTPDINPAWYTGRGIRPVGR[1Nal]-NH2) |  |  |  |  | agonist | 0.34 g | 60% | 1.05 g | 79% | 0.17 g | 76% | 0.78 g | 90% |  |  |  |  | 
167% | CCCCCCCCCCCCCC(=O)NC[C@H](N)C(=O)N[C@@H](CCCNC(=N)N)C(=O)N[C@@H](C)C(=O)N[C@@H](Cc1c[nH]cn1)C(=O)N[C@@H](CCC(N)=O)C(=O)N[C@@H](Cc1c[nH]cn1)C(=O)N[C@@H](CO)C(=O)N[C@@H](CCCC)C(=O)N[C@@H](CCC(=O)O)C(=O)N[C@H](C(=O)N[C@@H](CCCNC(=N)N)C(=O)N[C@H](C(=O)N1CCC[C@H]1C(=O)N[C@@H](CC(=O)O)C(=O)N[C@H](C(=O)N[C@@H](CC(N)=O)C(=O)N1CCC[C@H]1C(=O)N[C@@H](C)C(=O)N[C@@H](Cc1c[nH]c2ccccc12)C(=O)N[C@@H](Cc1ccc(O)cc1)C(=O)N[C@H](C(=O)NCC(=O)N[C@@H](CCCNC(=N)N)C(=O)NCC(=O)N[C@H](C(=O)N[C@@H](CCCNC(=N)N)C(=O)N1CCC[C@H]1C(=O)N[C@H](C(=O)NCC(=O)N[C@@H](CCCNC(=N)N)C(=O)N[C@@H](Cc1cccc2ccccc12)C(N)=O)C(C)C)[C@@H](C)CC)[C@@H](C)O)[C@@H](C)CC)[C@@H](C)O)[C@@H](C)O [Analog 9] (H-[Dap](Myristoyl)RAHQHS[Nle]ETRTPDINPAWYTGRGIRPVGR[1Nal]-NH2) |  |  |  |  | agonist | 0.28 g | 51% | 1.03 g | 78% |  |  |  |  | dose dependent | 0.01 g | 2% | 0.22 g | 25%
632% | CCCCCCCCCCCCCC(=O)N[C@H](C(=O)N1CCC[C@H]1C(=O)N[C@@H](CC(=O)O)C(=O)N[C@H](C(=O)N[C@@H](CC(N)=O)C(=O)N1CCC[C@H]1C(=O)N[C@@H](C)C(=O)N[C@@H](Cc1c[nH]c2ccccc12)C(=O)N[C@@H](Cc1ccc(O)cc1)C(=O)N[C@H](C(=O)NCC(=O)N[C@@H](CCCNC(=N)N)C(=O)NCC(=O)N[C@H](C(=O)N[C@@H](CCCNC(=N)N)C(=O)N1CCC[C@H]1C(=O)N[C@H](C(=O)NCC(=O)N[C@@H](CCCNC(=N)N)C(=O)N[C@@H](Cc1ccccc1)C(N)=O)C(C)C)[C@@H](C)CC)[C@@H](C)O)[C@@H](C)CC)[C@@H](C)O [Analog 10] (Myristoyl-TPDINPAWYTGRGIRPVGRF-NH2) | 0.11 g | 32% |  | 44% | agonist | 0.28 g | 51% | 1.1 g | 86% |  |  |  |  |  |  |  |  | 
